“And” between values parts separate entries of the source, which are not always exact repeats. Equal entries are not always repeated. “Also recorded” adds a separate entry of the source.
Key:
BMI1 = test: Western immunoblot analysis of miR-194 target BMI1 expression; format: cell-based, human; conditions: 50 nM
Description: (§1) Cell culture. The human pancreatic cancer cell lines ASPC-1, HS766T, and Panc-1, were obtained from the American Type Culture Collection (ATCC) and maintained in various types of media. Specifically, HS766T and PANC1 cells were cultured in DMEM containing media, and APSC-1 cells were maintained in RPMI medium (Thermo Fischer). Media was supplemented with 10% fetal bovine serum (Thermo Fischer).
(§2) Western immunoblot analysis. Twenty-four hours prior to transfection 1×10^5 cells were plated in 6 well plates. Cells were either transfected using Oligofectamine (Thermo Fischer) or no transfection vehicle, with 50 nM control miRNA (Thermo Fischer), miR-194 or one of the three miR-194 mimics. Three days following transfection protein was collected in RIPA buffer with protease inhibitor (Sigma). Equal amounts of protein (15 μg), were separated on 10% sodium dodecyl sulfate-polyacrylamide gels as described in Laemmli U K. Nature. 1970; 227(5259) pp. 680-685, the entire contents of which is incorporated herein by reference. Proteins were probed with anti-SET8 or BMI-1 (1:500) (Cell Signaling Technologies) and anti-GAPDH (1:100000) antibodies. Horseradish peroxidase conjugated antibodies against mouse or rabbit (1:5000, Santa Cruz Biotech Inc.) were used as the secondary antibodies. Protein bands were visualized with autoradiography film using SuperSignal West Pico Chemiluminescent Substrate (Thermo Fischer).

SET8 = test: Western immunoblot analysis of miR-194 target SET8 expression; format: cell-based, human; conditions: 50 nM
Description: as §1, §2

[1] = test system: HS766T pancreatic cancer cells; test: Cell viability assay (WST-1) in HS766T pancreatic cancer cells; format: cell-based, human; conditions: for IC50: WST-1 dye 6 days after treatment, calculated using CompuSyn
Description: as §1
(§3) Cell viability assay. Cells were plated 1000 cells per well in 96 well plates. Twenty four hours later cell media was changed to media supplemented with DFBS, with 50, 25, 12.5, 6.25, 3.125 or 1.5625 nM of Control miRNA (Thermo Fischer), miR-194, 5-FU-miR-194, Gem-mIR-194 or 5-FU-Gem-miR-194. 24 hours later media was changed again to fresh media supplemented with DFBS. 6 days after treatment cell number was assessed using WST-1 dye (Roche). Cells were incubated with 10 μl of WST-1 dye per 100 μl of media for 1 hour and absorbance was read at 450 and 630 nm. The optical density (O.D.) was calculated by subtracting the absorbance at 630 nm from that at 450 nm. IC^50 values were calculated using CompuSyn software (ComboSyn, Inc).

[2] = test system: ASPC1 pancreatic cancer cells; test: Cell viability assay (WST-1) in ASPC1 pancreatic cancer cells; format: cell-based, human; conditions: for IC50: WST-1 dye 6 days after treatment, calculated using CompuSyn
Description: as §1, §3

[3] = test system: PANC1 pancreatic cancer cells; test: Cell viability assay (WST-1) in PANC1 pancreatic cancer cells; format: cell-based, human; conditions: for IC50: WST-1 dye 6 days after treatment, calculated using CompuSyn
Description: as §1, §3

[4] = Toxicity in mice treated in the pancreatic cancer metastasis model; format: in vivo; conditions: mouse; 80 μg intravenous injection every other day for two weeks
Description: (§4) Mouse subcutaneous tumor implantation model. For in vivo miRNA delivery experiments, pancreatic cancer cells were created that expressed the lenti-luc reporter gene by infecting parental pancreatic cancer cells with a recombinant lentivirus. Luciferase-expressing HS766T cells (2.0×10^6 cells per mouse) were suspended in 0.1 mL of PBS solution and was injected through tail vein of each mouse. Four days after injection of pancreatic cancer cells, mice were treated via tail vein injection with 80 μg of negative control or modified miR(s) packaged with in vivo-jet PEI (Polyplus Transfection). Mice were treated every other day for 2 weeks (8 times). Following treatment, mice were screened using IVIS Spectrum In vivo Imaging System (IVIS) (PerkinElmer).

[5] = test system: Luciferase-expressing HS766T cells; test: Pancreatic cancer metastasis mouse model (tail vein injection, IVIS imaging); format: in vivo; conditions: 80 μg intravenous injection every other day for two weeks, started four days after establishing metastasis, versus negative control microRNA
Description: as §4

[6] = in the presence of a transfection agent (Oligofectamine), three days following transfection, FIG. 2C
[7] = no transfection vehicle, three days, FIG. 2D
[8] = in the presence of a transfection agent (Oligofectamine), three days following transfection, FIG. 2A
[9] = no transfection vehicle, three days, FIG. 2B

Row | Substance | BMI1 protein expression (Western blot) (BMI1; [6]) | BMI1 protein expression (Western blot) (BMI1; [7]) | SET8 protein expression (Western blot) (SET8; [8]) | SET8 protein expression (Western blot) (SET8; [9]) | IC50 [1] [nM] | IC50 [2] [nM] | IC50 [3] | toxicity in treated mice [4] | metastatic pancreatic cancer growth ([5]; FIG. 4) | metastatic pancreatic cancer growth ([5]; FIG. 4, listed as SEQ ID NO: 2) | metastatic pancreatic cancer growth ([5]; FIG. 4, listed as SEQ ID NOs: 2) | pancreatic cancer cell viability (in words) ([1]; 1.5625-50 nM, FIG. 3C) | pancreatic cancer cell viability (in words) ([2]; 1.5625-50 nM, FIG. 3A) | pancreatic cancer cell viability (in words) ([3]; 1.5625-50 nM, FIG. 3B)
1 | 5-FU-miR-194 (NGNAACAGCAACNCCANGNGGA; 5-FU replacing U; fluorouracil modified miR-194 with a fluorouracil molecule at positions 1, 3, 13, 17 and 19; (1)..(1) N is Fluorouracil molecule; (3)..(3) N is Fluorouracil molecule; (13)..(13) N is Fluorouracil molecule; (17)..(17) N is Fluorouracil molecule; (19)..(19) N is Fluorouracil molecule) | more potent than unmodified (control) miR-194 | retain the ability to inhibit | more potent than unmodified (control) miR-194 | retain the ability to inhibit SET8 | 26.4 | 6.06 | 16 nM and 16.7 nM |  |  |  |  |  |  | 
2 | Gem-miR-194: modified miR-194, all 5 cytosine bases in the guide strand replaced by gemcitabine: UGUAANAGNAANUNNAUGUGGA [SEQ ID NO. 2], N is gemcitabine (cytosines replaced by gemcitabine, chemistry not fully specified) | more potent than unmodified (control) miR-194; also recorded: inhibit SET8 and BMI1 | retain the ability to inhibit; also recorded: inhibit SET8 and BMI1 | more potent than unmodified (control) miR-194; also recorded: inhibit SET8 and BMI1 | retain the ability to inhibit SET8; also recorded: inhibit SET8 and BMI1 | 3.57 | 4.29 | 1.92 nM | did not exhibit any toxicity | able to inhibit metastatic pancreatic cancer growth compared to control | inhibiting tumor growth in vivo | able to inhibit metastatic pancreatic cancer growth compared to control | reduce pancreatic cancer cell viability | reduce pancreatic cancer cell viability | reduce pancreatic cancer cell viability
3 | miR-194: unmodified (native) miR-194 sequence UGUAACAGCAACUCCAUGUGGA [SEQ ID NO. 1] (unmodified RNA; listed as Homo sapiens) [reference compound] |  | unable to inhibit target expression |  |  |  |  |  |  |  |  |  |  |  | 
